Reference: patent US20260028326A1, “COMPOUND BASED ON ISOINDOLINE-SUBSTITUTED GLUTARIMIDE BACKBONE AND USE THEREOF” (GLUETACS THERAPEUTICS (SHANGHAI) CO., LTD., priority 2022, published 2026)

Legend:
GSPT1 protein = GSPT1 protein (Homo sapiens (Human), UniProt P15170+Q96SW2); test: Western-blot assay of substrate protein degradation in hPBMC, GSPT1; format: cell-based; conditions: hPBMC cells, compound 500 nM, 24 hours, Western blot
IKZF3 protein = IKZF3 protein (Homo sapiens (Human), UniProt Q96SW2+Q9UKT9); test: Western-blot assay of substrate protein degradation in hPBMC, IKZF3; format: cell-based; conditions: hPBMC cells, compound 500 nM, 24 hours, Western blot
[1] = molecular target: human Cereblon WT GST-tagged protein (Homo sapiens (Human), UniProt Q96SW2); test: CRBN-binding affinity, HTRF (CEREBLON BINDING kit)
In short: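 GST-tagged human WT Cereblon incubated with compound, then Thalidomide-Re tracer and anti-GST Eu antibody added. Displacement read by HTRF, reported as CRBN binding inhibition rate against blank control wells without protein.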

IKZF1 protein = IKZF1 protein (Homo sapiens (Human), UniProt Q13422+Q96SW2); test: Western-blot assay of substrate protein degradation in hPBMC, IKZF1; format: cell-based; conditions: hPBMC cells, compound 500 nM, 24 hours, Western blot
IKZF1 protein, sequence (Q13422 whole entry): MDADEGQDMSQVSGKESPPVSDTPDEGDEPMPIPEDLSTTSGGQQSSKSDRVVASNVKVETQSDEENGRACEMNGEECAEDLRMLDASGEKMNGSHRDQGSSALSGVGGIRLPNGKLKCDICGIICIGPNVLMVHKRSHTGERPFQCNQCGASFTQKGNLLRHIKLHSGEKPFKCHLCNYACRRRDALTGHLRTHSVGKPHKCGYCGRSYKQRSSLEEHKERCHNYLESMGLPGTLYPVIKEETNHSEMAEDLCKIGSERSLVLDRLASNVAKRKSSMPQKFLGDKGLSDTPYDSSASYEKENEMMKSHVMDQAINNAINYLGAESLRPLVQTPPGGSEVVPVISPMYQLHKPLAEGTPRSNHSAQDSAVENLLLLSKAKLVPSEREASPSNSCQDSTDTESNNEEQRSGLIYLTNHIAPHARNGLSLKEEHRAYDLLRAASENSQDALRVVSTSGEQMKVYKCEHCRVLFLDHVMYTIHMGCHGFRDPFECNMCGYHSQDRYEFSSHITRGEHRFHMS
IKZF1 protein, sequence (Q96SW2 whole entry): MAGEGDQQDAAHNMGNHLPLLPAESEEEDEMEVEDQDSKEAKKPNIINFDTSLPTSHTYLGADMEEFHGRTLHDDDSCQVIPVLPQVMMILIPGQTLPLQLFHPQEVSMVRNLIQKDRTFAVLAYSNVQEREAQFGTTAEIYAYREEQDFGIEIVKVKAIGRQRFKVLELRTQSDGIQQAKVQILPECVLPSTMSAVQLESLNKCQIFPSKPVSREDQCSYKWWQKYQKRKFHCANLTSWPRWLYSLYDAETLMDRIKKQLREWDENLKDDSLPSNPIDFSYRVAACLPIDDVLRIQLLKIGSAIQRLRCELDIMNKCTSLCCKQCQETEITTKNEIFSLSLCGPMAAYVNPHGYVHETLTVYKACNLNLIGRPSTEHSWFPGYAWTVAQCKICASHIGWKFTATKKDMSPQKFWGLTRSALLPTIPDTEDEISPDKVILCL
IKZF1 protein, sequence (Q16531 whole entry partner): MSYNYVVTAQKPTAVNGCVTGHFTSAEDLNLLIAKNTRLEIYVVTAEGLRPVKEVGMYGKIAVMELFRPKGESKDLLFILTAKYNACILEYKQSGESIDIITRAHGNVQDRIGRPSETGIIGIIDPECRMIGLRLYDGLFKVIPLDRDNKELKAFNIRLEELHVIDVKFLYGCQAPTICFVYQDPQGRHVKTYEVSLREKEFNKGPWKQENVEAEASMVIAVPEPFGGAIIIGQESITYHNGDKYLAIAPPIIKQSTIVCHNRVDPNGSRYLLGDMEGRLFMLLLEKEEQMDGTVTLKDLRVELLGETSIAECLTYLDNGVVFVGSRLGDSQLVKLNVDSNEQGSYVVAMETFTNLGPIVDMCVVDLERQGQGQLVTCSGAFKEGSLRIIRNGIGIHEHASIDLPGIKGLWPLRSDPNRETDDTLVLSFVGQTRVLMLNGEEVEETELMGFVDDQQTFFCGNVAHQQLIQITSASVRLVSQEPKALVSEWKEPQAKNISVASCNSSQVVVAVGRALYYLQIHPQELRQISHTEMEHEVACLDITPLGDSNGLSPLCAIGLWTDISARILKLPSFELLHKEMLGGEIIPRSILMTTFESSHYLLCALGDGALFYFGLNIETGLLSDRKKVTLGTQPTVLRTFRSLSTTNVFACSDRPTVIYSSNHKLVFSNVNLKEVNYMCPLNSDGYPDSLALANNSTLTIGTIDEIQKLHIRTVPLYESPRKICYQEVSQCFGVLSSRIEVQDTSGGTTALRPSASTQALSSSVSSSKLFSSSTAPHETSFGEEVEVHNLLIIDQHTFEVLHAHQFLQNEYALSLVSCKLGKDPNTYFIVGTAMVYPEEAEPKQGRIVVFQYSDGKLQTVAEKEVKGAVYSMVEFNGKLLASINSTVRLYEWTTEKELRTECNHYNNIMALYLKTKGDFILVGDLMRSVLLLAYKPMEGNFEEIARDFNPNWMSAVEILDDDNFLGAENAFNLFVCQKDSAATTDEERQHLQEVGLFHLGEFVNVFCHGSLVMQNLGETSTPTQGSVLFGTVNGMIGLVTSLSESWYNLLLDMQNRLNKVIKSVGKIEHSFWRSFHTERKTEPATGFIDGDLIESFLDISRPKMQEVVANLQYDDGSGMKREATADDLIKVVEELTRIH

GSPT1 protein, sequence (P15170 whole entry): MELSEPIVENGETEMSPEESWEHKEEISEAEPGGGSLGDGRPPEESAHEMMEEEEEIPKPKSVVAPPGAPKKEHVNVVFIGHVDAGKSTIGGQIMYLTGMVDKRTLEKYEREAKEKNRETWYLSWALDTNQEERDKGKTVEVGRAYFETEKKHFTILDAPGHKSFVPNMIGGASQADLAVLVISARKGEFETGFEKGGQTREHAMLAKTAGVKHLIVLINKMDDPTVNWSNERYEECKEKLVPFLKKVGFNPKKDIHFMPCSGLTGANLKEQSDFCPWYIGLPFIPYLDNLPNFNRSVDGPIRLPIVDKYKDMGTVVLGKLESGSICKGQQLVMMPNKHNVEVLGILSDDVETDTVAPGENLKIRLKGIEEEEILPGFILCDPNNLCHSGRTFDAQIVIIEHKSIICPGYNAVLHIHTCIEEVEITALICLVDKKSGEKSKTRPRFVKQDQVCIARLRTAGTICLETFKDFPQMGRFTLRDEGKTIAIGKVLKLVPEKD
GSPT1 protein, sequence (Q96SW2 whole entry): as the sequence (Q96SW2 whole entry) above
GSPT1 protein, sequence (Q16531 whole entry partner): as the sequence (Q16531 whole entry partner) above
human Cereblon WT GST-tagged protein, sequence (Q96SW2 whole entry): as the sequence (Q96SW2 whole entry) above
IKZF3 protein, sequence (Q9UKT9 whole entry): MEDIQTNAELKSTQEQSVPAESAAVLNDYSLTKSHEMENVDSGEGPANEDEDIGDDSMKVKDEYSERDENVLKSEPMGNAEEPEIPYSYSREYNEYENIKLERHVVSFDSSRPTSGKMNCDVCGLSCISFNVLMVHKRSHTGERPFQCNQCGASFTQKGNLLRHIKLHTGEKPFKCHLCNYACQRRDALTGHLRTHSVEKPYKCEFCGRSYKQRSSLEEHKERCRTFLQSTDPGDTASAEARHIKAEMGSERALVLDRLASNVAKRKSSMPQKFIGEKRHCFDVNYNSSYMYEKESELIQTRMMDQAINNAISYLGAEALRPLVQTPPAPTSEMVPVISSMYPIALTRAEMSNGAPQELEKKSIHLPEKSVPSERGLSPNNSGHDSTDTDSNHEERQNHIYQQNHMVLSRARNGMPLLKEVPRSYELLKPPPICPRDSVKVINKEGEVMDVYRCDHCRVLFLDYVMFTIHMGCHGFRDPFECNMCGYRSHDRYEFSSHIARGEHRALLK
IKZF3 protein, sequence (Q96SW2 whole entry): as the sequence (Q96SW2 whole entry) above
IKZF3 protein, sequence (Q16531 whole entry partner): as the sequence (Q16531 whole entry partner) above

Compound	residual substrate protein level, GSPT1 (GSPT1 protein)	residual substrate protein level, IKZF3 (IKZF3 protein)	IC50 [1]	residual substrate protein level, IKZF1 (IKZF1 protein)
CC1(C)CCC(CN2CC3CC(C2)N3Cc2ccc3c(c2)C(=O)N(C2CCC(=O)NC2=O)C3=O)=C(c2ccc(Cl)cc2)C1 (centres unmarked) [GT-05368, 5-((3-((4′-chloro-5,5-dimethyl-3,4,5,6-tetrahydro-[1,1′-biphenyl]-2-yl)methyl)-3,6-diazabicyclo[3.1.1]heptan-6-yl)methyl)-2-(2,6-dioxopiperidin-3-yl)isoindoline-1,3-dione]	A (A represents a residual substrate protein level of <50%)	A (A represents a residual substrate protein level of <50%)	1800 nM	B (B represents a residual substrate protein level of >50%)
CC1(C)CCC(CN2CC3CCC(C2)N3Cc2ccc3c(c2F)CN(C2CCC(=O)NC2=O)C3=O)=C(c2ccc(Cl)cc2)C1 (centres unmarked) [GT-03890, 3-(5-((3-((4′-chloro-5,5-dimethyl-3,4,5,6-tetrahydro-[1,1′-biphenyl]-2-yl)methyl)-3,8-diazabicyclo[3.2.1]octan-8-yl)methyl)-4-fluoro-1-oxoisoindolin-2-yl)piperidine-2,6-dione]	A (A represents a residual substrate protein level of <50%)	A (A represents a residual substrate protein level of <50%)	510 nM	B (B represents a residual substrate protein level of >50%)
CC1(C)CCC(C(=O)N2CC3CCC2CN3Cc2ccc3c(c2)CN(C2CCC(=O)NC2=O)C3=O)=C(c2ccc(Cl)cc2)C1 (centres unmarked) [GT-05662, 3-(5-((5-(4′-chloro-5,5-dimethyl-3,4,5,6-tetrahydro-[1,1′-biphenyl]-2-carbonyl)-2,5-diazabicyclo[2.2.2]octan-2-yl)methyl)-1-oxoisoindolin-2-yl)piperidine-2,6-dione]	B (B represents a residual substrate protein level of >50%)	A (A represents a residual substrate protein level of <50%)	710 nM	B (B represents a residual substrate protein level of >50%)
O=C1CCC(N2Cc3cc(CN4CCCN(C(=O)c5ccccc5-c5ccc(Cl)cc5)CC4)ccc3C2=O)C(=O)N1 (centres unmarked) [GT-05644, 3-(5-((4-(4′-chloro-[1,1′-biphenyl]-2-carbonyl)-1,4-diazepan-1-yl)methyl)-1-oxoisoindolin-2-yl)piperidine-2,6-dione]	A (A represents a residual substrate protein level of <50%)	B (B represents a residual substrate protein level of >50%)	590 nM	B (B represents a residual substrate protein level of >50%)
O=C1CCC(N2Cc3cc(C(=O)N4CC5CCC(C4)N5Cc4ccccc4-c4ccc(Cl)cc4)ccc3C2=O)C(=O)N1 (centres unmarked) [GT-05621, 3-(5-(8-((4′-chloro-[1,1′-biphenyl]-2-yl)methyl)-3,8-diazabicyclo[3.2.1]octane-3-carbonyl)-1-oxoisoindolin-2-yl)piperidine-2,6-dione]	A (A represents a residual substrate protein level of <50%)	B (B represents a residual substrate protein level of >50%)	1100 nM	B (B represents a residual substrate protein level of >50%)
O=C1CCC(N2Cc3cc(CN4CC5(CCN(Cc6ccccc6-c6ccc(Cl)cc6)CC5)C4)ccc3C2=O)C(=O)N1 (centres unmarked) [GT-05612, 3-(5-((7-((4′-chloro-[1,1′-biphenyl]-2-yl)methyl)-2,7-diazaspiro[3.5]nonan-2-yl)methyl)-1-oxoisoindolin-2-yl)piperidine-2,6-dione]	B (B represents a residual substrate protein level of >50%)	A (A represents a residual substrate protein level of <50%)	650 nM	A (A represents a residual substrate protein level of <50%)
CC1(C)CCC(C(=O)N2CC3CCC2CN3Cc2ccc3c(c2)CN(C2CCC(=O)NC2=O)C3=O)=C(c2ccc(F)cc2)C1 (centres unmarked) [GT-05402, 3-(5-((5-(4′-fluoro-5,5-dimethyl-3,4,5,6-tetrahydro-[1,1′-biphenyl]-2-carbonyl)-2,5-diazabicyclo[2.2.2]octan-2-yl)methyl)-1-oxoisoindolin-2-yl)piperidine-2,6-dione]	B (B represents a residual substrate protein level of >50%)	A (A represents a residual substrate protein level of <50%)	430 nM	B (B represents a residual substrate protein level of >50%)
CC1(C)CCC(CN2CCCN(Cc3ccc4c(c3)CN(C3CCC(=O)NC3=O)C4=O)CC2)=C(c2ccc(F)cc2)C1 (centres unmarked) [GT-05504, 3-(5-((4-((4′-fluoro-5,5-dimethyl-3,4,5,6-tetrahydro-[1,1′-biphenyl]-2-yl)methyl)-1,4-diazepan-1-yl)methyl)-1-oxoisoindolin-2-yl)piperidine-2,6-dione]	B (B represents a residual substrate protein level of >50%)	A (A represents a residual substrate protein level of <50%)	730 nM	A (A represents a residual substrate protein level of <50%)
O=C1CCC(N2Cc3cc(CN4CC5CN(Cc6ccccc6-c6ccc(Cl)cc6)CC5C4)ccc3C2=O)C(=O)N1 (centres unmarked) [GT-05613, 3-(5-((5-((4′-chloro-[1,1′-biphenyl]-2-yl)methyl)hexahydropyrrolo[3,4-c]pyrrol-2(1H)-yl)methyl)-1-oxoisoindolin-2-yl)piperidine-2,6-dione]	B (B represents a residual substrate protein level of >50%)	A (A represents a residual substrate protein level of <50%)	590 nM	B (B represents a residual substrate protein level of >50%)
CC1(C)CCC(CN2CCN(Cc3ccc4c(c3)CN(C3CCC(=O)NC3=O)C4=O)C(C(F)(F)F)C2)=C(c2ccc(Cl)cc2)C1 (centres unmarked) [GT-05796, 3-(5-((4-((4′-chloro-5,5-dimethyl-3,4,5,6-tetrahydro-[1,1′-biphenyl]-2-yl)methyl)-2-(trifluoromethyl)piperazin-1-yl)methyl)-1-oxoisoindolin-2-yl)piperidine-2,6-dione]	A (A represents a residual substrate protein level of <50%)	B (B represents a residual substrate protein level of >50%)	200 nM	B (B represents a residual substrate protein level of >50%)
CC1(C)CCC(CN2CC3CC(C2)N3Cc2ccc3c(c2)CN(C2CCC(=O)NC2=O)C3=O)=C(c2ccc(F)cc2)C1 (centres unmarked) [GT-05399, 3-(5-((3-((4′-fluoro-5,5-dimethyl-3,4,5,6-tetrahydro-[1,1′-biphenyl]-2-yl)methyl)-3,6-diazabicyclo[3.1.1]heptan-6-yl)methyl)-1-oxoisoindolin-2-yl)piperidine-2,6-dione]	A (A represents a residual substrate protein level of <50%)	B (B represents a residual substrate protein level of >50%)	430 nM	B (B represents a residual substrate protein level of >50%)
